The values below come from US10799507B2, “5-(7H-pyrrolo[2,3-d]pyrimidin-4-yl)-5-azaspiro[2.5]octane-8-carboxylic acid derivatives as novel JAK kinase inhibitors” (LEO Pharma A/S, priority 2017, dated 2020).

The target of one series is TYK2 (Homo sapiens (Human), UniProt P29597). As to the kind of experiment: JAK kinase assay (HTRF), TYK2. In kind it is biochemical. The conditions noted are these: catalytic domain, ATP at Km (13 μM). The procedure, abridged:
(§1)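 Catalytic-domain human kinases, GST-tagged TYK2 (aa 871-1187) and His-tagged JAK3, phosphorylate 1 μM TK Substrate-Biotin for 20-30 min at RT in 50 mM Hepes pH 7.0, 5 mM MgCl2, ATP at Km (TYK2 13 μM with 50 nM SEB; JAK3 2 μM). Phosphorylation detected by HTRF.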

In a further series the target is JAK1 (Homo sapiens (Human), UniProt P23458). As to the kind of experiment: JAK kinase assay (HTRF), JAK1. The class given is biochemical. To be noted: catalytic domain, ATP at Km (7 μM). The essentials: (§2)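 Catalytic-domain human JAK1 (GST-tagged, aa 850-1154) or His-tagged JAK2, baculovirus-expressed, phosphorylated 1 µM biotinylated TK peptide at Km ATP (JAK1 7 µM, 10 mM MgCl2, 50 nM SEB; JAK2 4 µM, 5 mM MgCl2) in pH 7.0 Hepes, 20-30 min RT. EDTA stop; overnight streptavidin-XL665/cryptate HTRF read.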
A general note: TR-FRET usually uses a lanthanide donor and a delayed reading to cut background.

The target of the next series is JAK3 (Homo sapiens (Human), UniProt P52333). As to the kind of experiment: JAK kinase assay (HTRF), JAK3. In kind it is biochemical. The conditions noted are these: catalytic domain, ATP at Km (2 μM). The essentials: as §1
The target in a further series is JAK2 (Homo sapiens (Human), UniProt O60674). As to the kind of experiment: JAK kinase assay (HTRF), JAK2. In kind it is biochemical. To be noted: catalytic domain, ATP at Km (4 μM). The essentials:
as §2

Series [1] is described as follows: in vitro metabolic stability in human liver microsomes. In kind it is in vitro ADME. The conditions noted are these: 0.5 μM compound, 0.5 mg/mL microsomes, NADPH, 40 min, 37° C.; for CLint scaled at 0.5 μM: human, liver microsomes, read-out: Human liver microsome Clapp (apparent intrinsic clearance). The essentials:
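Compounds at 0.5 μM incubated in duplicate with human liver microsomes (0.5 mg/mL), phosphate buffer and NADPH at 37 °C for 40 min, sampled at 0, 5, 10, 20, 40 min into cold acetonitrile. LC-TOF-MS depletion gave elimination rate constant, from which apparent intrinsic clearance (Clapp) was calculated.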
In general terms: Microsomes from liver hold many membrane-bound enzymes, among them those of drug oxidation.

JAK1, sequence (P23458 850-1154): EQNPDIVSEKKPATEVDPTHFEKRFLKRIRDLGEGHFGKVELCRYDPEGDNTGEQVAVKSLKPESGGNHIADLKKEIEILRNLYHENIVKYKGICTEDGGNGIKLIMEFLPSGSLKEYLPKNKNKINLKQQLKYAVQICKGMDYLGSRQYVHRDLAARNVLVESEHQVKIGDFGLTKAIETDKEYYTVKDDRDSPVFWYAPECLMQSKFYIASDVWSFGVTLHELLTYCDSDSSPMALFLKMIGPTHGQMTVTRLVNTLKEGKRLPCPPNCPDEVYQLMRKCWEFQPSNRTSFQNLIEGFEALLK
JAK2, sequence (O60674 849-1124): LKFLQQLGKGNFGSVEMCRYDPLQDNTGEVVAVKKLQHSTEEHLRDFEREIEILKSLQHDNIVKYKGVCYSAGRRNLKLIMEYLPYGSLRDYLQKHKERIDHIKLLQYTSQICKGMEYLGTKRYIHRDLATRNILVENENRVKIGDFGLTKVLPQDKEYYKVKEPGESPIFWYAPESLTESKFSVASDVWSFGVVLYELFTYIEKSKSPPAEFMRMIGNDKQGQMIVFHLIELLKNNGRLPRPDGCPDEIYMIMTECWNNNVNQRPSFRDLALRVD
JAK3, sequence (P52333 822-1111): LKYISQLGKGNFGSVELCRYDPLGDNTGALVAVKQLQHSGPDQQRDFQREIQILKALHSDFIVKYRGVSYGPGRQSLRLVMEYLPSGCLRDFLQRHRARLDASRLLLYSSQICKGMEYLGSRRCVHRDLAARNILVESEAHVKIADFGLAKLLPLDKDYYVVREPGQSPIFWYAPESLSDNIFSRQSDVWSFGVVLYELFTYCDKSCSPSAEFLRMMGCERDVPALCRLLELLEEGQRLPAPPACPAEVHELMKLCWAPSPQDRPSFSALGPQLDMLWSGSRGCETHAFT
TYK2, sequence (P29597 871-1187): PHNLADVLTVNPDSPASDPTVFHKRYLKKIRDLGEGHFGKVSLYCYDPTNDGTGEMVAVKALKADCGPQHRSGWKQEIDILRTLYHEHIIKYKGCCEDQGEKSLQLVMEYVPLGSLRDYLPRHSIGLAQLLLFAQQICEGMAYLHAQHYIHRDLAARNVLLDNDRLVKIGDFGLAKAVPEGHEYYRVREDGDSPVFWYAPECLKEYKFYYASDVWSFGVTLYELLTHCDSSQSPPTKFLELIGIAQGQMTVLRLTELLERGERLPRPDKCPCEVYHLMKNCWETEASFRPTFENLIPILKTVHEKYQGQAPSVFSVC

Take `C[C@H](NC(=O)[C@H]1CCN(c2ncnc3[nH]ccc23)CC12CC2)c1ccc(C#N)c(F)c1` [Example 14, (8S)-N-[(1S)-1-(4-cyano-3-fluoro-phenyl)ethyl]-5-(7H-pyrrolo[2,3-d]pyrimidin-4-yl)-5-azaspiro[2.5]octane-8-carboxamide]: the EC50 at TYK2 was found to be 26.8 nM; on JAK1 it was 0.9 nM; on JAK3 it was 6.5 nM; on JAK2, 2.2 nM. Besides, in series [1], the CLint scaled at 0.5 μM is above 12 L/h/kg.

For the molecule `O=C(NCC1(CO)CCCC1)[C@H]1CCN(c2ncnc3[nH]ccc23)CC12CC2` [Example 52, (8S)-N-[[1-(hydroxymethyl)cyclopentyl]methyl]-5-(7H-pyrrolo[2,3-d]pyrimidin-4-yl)-5-azaspiro[2.5]octane-8-carboxamide], the EC50 worked out at 38 nM at TYK2, 3.6 nM on JAK1, 22.8 nM at JAK3 and 10.2 nM on JAK2. The CLint scaled at 0.5 μM in series [1] stood at 7.08 L/h/kg.

For the molecule `N#Cc1ccc(C(O)CNC(=O)C2CCN(c3ncnc4[nH]ccc34)CC23CC3)cc1` (stereo not drawn) [Example 39, N-[2-(4-cyanophenyl)-2-hydroxy-ethyl]-5-(7H-pyrrolo[2,3-d]pyrimidin-4-yl)-5-azaspiro[2.5]octane-8-carboxamide], the EC50 on TYK2 was 75.4 nM; at JAK1, 2.4 nM; at JAK3, 11.5 nM; on JAK2, 4.8 nM. The CLint scaled at 0.5 μM in series [1] was 11.2 L/h/kg.

With `N#Cc1ccc(CNC(=O)[C@H]2CCN(c3ncnc4[nH]ccc34)CC23CC3)cc1` [Example 13, (8S)-N-[(4-cyanophenyl)methyl]-5-(7H-pyrrolo[2,3-d]pyrimidin-4-yl)-5-azaspiro[2.5]octane-8-carboxamide], the EC50 on TYK2 came to 81.1 nM; at JAK1, 0.9 nM; on JAK3, 8.9 nM; at JAK2, 6.1 nM. Moreover, in series [1], the CLint scaled at 0.5 μM was found to be 4.92 L/h/kg.

On to `Cc1ccc([C@H](O)CNC(=O)[C@H]2CCN(c3ncnc4[nH]ccc34)CC23CC3)cc1` [Example 64, (8S)-N-[(2S)-2-hydroxy-2-(p-tolyl)ethyl]-5-(7H-pyrrolo[2,3-d]pyrimidin-4-yl)-5-azaspiro[2.5]octane-8-carboxamide], for which the EC50 was 90.9 nM at TYK2, 4.5 nM at JAK1, 28.5 nM on JAK3 and 6.7 nM at JAK2. For the same molecule, the CLint scaled at 0.5 μM in series [1] is above 12 L/h/kg.

As to `C[C@H](NC(=O)C1CCN(c2ncnc3[nH]ccc23)CC12CC2)c1ccc(C#N)cc1` (stereo partly drawn) [Example 21, N-[(1S)-1-(4-cyanophenyl)ethyl]-5-(7H-pyrrolo[2,3-d]pyrimidin-4-yl)-5-azaspiro[2.5]octane-8-carboxamide], the EC50 amounted to 52.1 nM on TYK2, 1.1 nM at JAK1, 7.7 nM at JAK3 and 2.5 nM at JAK2. The CLint scaled at 0.5 μM in series [1] was found to be 10.2 L/h/kg.

Take `C[C@@H](NC(=O)C1CCN(c2ncnc3[nH]ccc23)CC12CC2)c1ccc(C#N)cc1` (stereo partly drawn) [Example 111, N-[(1R)-1-(4-cyanophenyl)ethyl]-5-(7H-pyrrolo[2,3-d]pyrimidin-4-yl)-5-azaspiro[2.5]octane-8-carboxamide]: the EC50 came out at 930 nM at TYK2, 11.2 nM on JAK1, 123 nM at JAK3 and 52.1 nM at JAK2. Further, the CLint scaled at 0.5 μM in series [1] stood at 6.66 L/h/kg.

For the molecule `O=C(NC[C@@H](O)C1CCCC1)[C@H]1CCN(c2ncnc3[nH]ccc23)CC12CC2` [Example 32, (8S)-N-[(2S)-2-cyclopentyl-2-hydroxy-ethyl]-5-(7H-pyrrolo[2,3-d]pyrimidin-4-yl)-5-azaspiro[2.5]octane-8-carboxamide], the EC50 at TYK2 is 25.4 nM; at JAK1, 1.8 nM; at JAK3 it was 8.3 nM; on JAK2, 5.2 nM. Moreover, the CLint scaled at 0.5 μM in series [1] worked out at 9.54 L/h/kg.

As to `O=C(NCC1(CO)CC(F)(F)C1)[C@H]1CCN(c2ncnc3[nH]ccc23)CC12CC2` [Example 23, (8S)-N-[[3,3-difluoro-1-(hydroxymethyl)cyclobutyl]methyl]-5-(7H-pyrrolo[2,3-d]pyrimidin-4-yl)-5-azaspiro[2.5]octane-8-carboxamide], the EC50 on TYK2 came to 19.8 nM; at JAK1 it was 1.3 nM; at JAK3, 6.7 nM; on JAK2, 2.7 nM. Further, the CLint scaled at 0.5 μM in series [1] is 2.4 L/h/kg.

Take `O=C(NC[C@@H](O)c1ccccc1)C1CCN(c2ncnc3[nH]ccc23)CC12CC2` (stereo partly drawn) [Example 63, N-[(2S)-2-hydroxy-2-phenyl-ethyl]-5-(7H-pyrrolo[2,3-d]pyrimidin-4-yl)-5-azaspiro[2.5]octane-8-carboxamide]: the EC50 at TYK2 was found to be 147 nM; on JAK1, 4.5 nM; on JAK3, 58.5 nM; on JAK2, 15.9 nM. The CLint scaled at 0.5 μM in series [1] was above 12 L/h/kg.

Take `O=C(NC[C@H](O)C1CCOCC1)[C@H]1CCN(c2ncnc3[nH]ccc23)CC12CC2` [Example 10, (8S)-N-[(2R)-2-hydroxy-2-tetrahydropyran-4-yl-ethyl]-5-(7H-pyrrolo[2,3-d]pyrimidin-4-yl)-5-azaspiro[2.5]octane-8-carboxamide]: the EC50 amounted to 10.8 nM on TYK2, 0.8 nM at JAK1, 11.7 nM on JAK3 and 2.9 nM at JAK2. Moreover, in series [1], the CLint scaled at 0.5 μM is 1.68 L/h/kg.

Take `C[C@H](NC(=O)[C@H]1CCN(c2ncnc3[nH]ccc23)CC12CC2)[C@@H](O)c1ccc(F)cc1` [Example 6, (8S)-N-[(1S,2S)-2-(4-fluorophenyl)-2-hydroxy-1-methyl-ethyl]-5-(7H-pyrrolo[2,3-d]pyrimidin-4-yl)-5-azaspiro[2.5]octane-8-carboxamide]: the EC50 on TYK2 is 7 nM; at JAK1 it was 0.6 nM; at JAK3, 7.4 nM; on JAK2, 1.4 nM. For the same molecule, in series [1], the CLint scaled at 0.5 μM was above 12 L/h/kg.

With `O=C(NC[C@@H](O)C1CCCC1)[C@H]1CCN(c2ncnc3[nH]ccc23)CC12CC2` [Example 1, (8S)-N-[(2S)-2-cyclopentyl-2-hydroxy-ethyl]-5-(7H-pyrrolo[2,3-d]pyrimidin-4-yl)-5-azaspiro[2.5]octane-8-carboxamide], the EC50 turned out to be 3.6 nM at TYK2, 0.5 nM on JAK1, 3.3 nM on JAK3 and 1 nM at JAK2. The “Human liver microsome Clapp (apparent intrinsic clearance)” value in series [1] came to 11.4 L/h/kg.

For `O=C(NCC1CC(F)(F)C1)[C@H]1CCN(c2ncnc3[nH]ccc23)CC12CC2` [Example 62, (8S)-N-[(3,3-difluorocyclobutyl)methyl]-5-(7H-pyrrolo[2,3-d]pyrimidin-4-yl)-5-azaspiro[2.5]octane-8-carboxamide], the EC50 at TYK2 is 47.5 nM; at JAK1, 4.5 nM; at JAK3 it was 15.7 nM; on JAK2 it was 7 nM. For the same molecule, the CLint scaled at 0.5 μM in series [1] came out at 2.88 L/h/kg.

`O=C(NC[C@H](O)C1CCC1)[C@H]1CCN(c2ncnc3[nH]ccc23)CC12CC2` [Example 25, (8S)-N-[(2R)-2-cyclobutyl-2-hydroxy-ethyl]-5-(7H-pyrrolo[2,3-d]pyrimidin-4-yl)-5-azaspiro[2.5]octane-8-carboxamide]: the EC50 on TYK2 was 11.1 nM; on JAK1 it was 1.3 nM; at JAK3, 13.6 nM; on JAK2, 3.4 nM. For the same molecule, the CLint scaled at 0.5 μM in series [1] was 2.76 L/h/kg.

`Cc1cc([C@@H](O)CNC(=O)[C@H]2CCN(c3ncnc4[nH]ccc34)CC23CC3)ncc1F` (single isomer, unassigned) [Example 110]: the EC50 was 188 nM at TYK2, 11.1 nM on JAK1, 75.3 nM at JAK3 and 26.3 nM at JAK2. In addition, the CLint scaled at 0.5 μM in series [1] was found to be 11.7 L/h/kg.

Regarding `C[C@@](CO)(NC(=O)[C@H]1CCN(c2ncnc3[nH]ccc23)CC12CC2)c1ccc(C#N)cc1` [Example 28, (8S)-N-[(1R)-1-(4-cyanophenyl)-2-hydroxy-1-methyl-ethyl]-5-(7H-pyrrolo[2,3-d]pyrimidin-4-yl)-5-azaspiro[2.5]octane-8-carboxamide], the EC50 amounted to 55.8 nM at TYK2, 1.4 nM at JAK1, 9.8 nM on JAK3 and 5.5 nM at JAK2. Also, the CLint scaled at 0.5 μM in series [1] turned out to be 7.92 L/h/kg.

As to `O=C(OCC1(CO)CCCC1)[C@H]1CCN(c2ncnc3[nH]ccc23)CC12CC2` [Example 159, [1-(hydroxymethyl)cyclopentyl]methyl (8S)-5-(7H-pyrrolo[2,3-d]pyrimidin-4-yl)-5-azaspiro[2.5]octane-8-carboxylate], the EC50 at TYK2 amounted to 5.1 nM; at JAK1, 0.5 nM; at JAK3 it was 3.1 nM; on JAK2, 1.3 nM. For the same molecule, the CLint scaled at 0.5 μM in series [1] is above 12 L/h/kg.

The term EC50 denotes the concentration needed to bring the measured effect to its halfway point. Lower therefore signals a more potent agent.
